Laboratory results taken from patent US20040076974A1, “Liver necrosis predictive genes” (priority 2002, published 2004).
Read-outs that look alike come from different tables or passages of the source.

Test system: Sprague Dawley rats
Procedure: Sprague Dawley rats Crl:CD from Charles River, Raleigh, N.C. were divided into treated rats that receive a specific concentration of the compound (see Table 1) and. control rats that only received the vehicle in which the compound is mixed (e.g., saline).
At specified timepoints (6 h, 24 h and 72 h) after administration (intraperitoneal route) of the compound, a set number of rats (usually 3 control and 3 treated) were euthanized and tissues collected. Each, rat was heavily sedated with an overdose of CO2 by inhalation and a maximum amount of blood drawn. Exsanguination of the rat by this drawing of blood kills the rat. The method of collecting the tissues is very important and ensures preserving the quality of the mRNA in the tissues. The body of the rat was then opened up and prosectors rapidly removed the tissues (including) and immediately placed them into liquid nitrogen. […] The organs/tissues were then packaged into well-labeled plastic freezer quality bags and stored at −80 degrees until needed for isolation of the mRNA from a portion of the organ/tissue sample.
Histopathology scores for each animal (assigned on a compound-dose basis as indicated in Table 1) were entered with gene expression data by using the GeneSpring™ ‘Drawn Gene’ function. Correlations between the histopathology scores and gene expression were conducted with the distance measures listed below:
Toxicity classifications were entered for training and test set as a parameter column. Toxicity, as defined by observation of necrosis in the at 72 hours after treatment, was entered as a “yes” or “no” for each animal in a compound-dose group. Additionally, a parameter column for random histopathology classification was designated. This was done by randomly assigning the same number of “yes” and “no” calls to the individual animals.

[1] = compound-dose group at 72 h; dose 20
[2] = compound-dosegroup at 72 h, dose 20
[3] = rat, intraperitoneal, dose 20 mg/kg, 72 hours after treatment
[4] = rat, intraperitoneal, dose 20 mg/kg, 72 hours; 1 = not remarkable, 2 and higher increasing severity
[5] = Sprague Dawley, rat, in vivo, ip, 50 mg/kg, 72 h
[6] = 72 h; compound-dose group; dose BRB 800, BUS 14, CAD 1, CAR 16
[7] = compound-dose group at 72 h; BUS 14, CAD 1, CAR 16 (dose codes, Table 1)

CN(N=O)C(=O)N[C@H]1C(O)O[C@H](CO)[C@@H](O)[C@@H]1O (mixture of isomers) [streptozotocin]
Liver Toxicity Necrosis Classification (compound-dose group at 72 h, dose 20): no | Liver Toxicity Necrosis Classification (compound-dose group at 72 h, dose 75): no | Liver Toxicity Necrosis Classification [1]: no | Liver Toxicity Necrosis Classification (compound-dose group at 72 h; dose 75): no | Liver Toxicity Necrosis Classification [2]: no | Liver Toxicity Necrosis Classification (compound-dosegroup at 72 h, dose 75): no | Liver Toxicity Necrosis Classification (compound-dosegroup at 72 h; dose PEG 5000, PUR 38, QUIN 25, STRZ 20): no | Liver Necrosis [3]: no | Score (histopathology liver necrosis severity score) [4]: 1 | Liver Necrosis (rat, intraperitoneal, dose 75 mg/kg, 72 hours after treatment): no | Score (histopathology liver necrosis severity score) (rat, intraperitoneal, dose 75 mg/kg, 72 hours; 1 = not remarkable, 2 and higher increasing severity): 1

O=c1[nH]cc(F)c(=O)[nH]1 [5-fluorouracil]
Score (histopathology liver necrosis severity score) (Sprague Dawley, rat, in vivo, ip, 13 mg/kg, 72 h): 1 | Score (histopathology liver necrosis severity score) [5]: 1 | Liver Toxicity Necrosis Classification (rat, in vivo): no | Liver Necrosis (rat, in vivo, ip, 13 mg/kg): no | Liver Necrosis (rat, in vivo, ip, 50 mg/kg): no

C[C@@H]1[C@H](O)[C@@H](C)/C=C/C=C/C=C/C=C/C=C/C=C/C=C/[C@H](O[C@@H]2O[C@H](C)[C@@H](O)[C@H](N)[C@@H]2O)C[C@@H]2O[C@](O)(C[C@@H](O)C[C@@H](O)[C@H](O)CC[C@@H](O)C[C@@H](O)CC(=O)O[C@H]1C)C[C@H](O)[C@H]2C(=O)O [amphotericin B]
Liver Toxicity Necrosis Classification (72 h; dose 5): no | Liver Toxicity Necrosis Classification (72 h; dose 20): no | Liver Toxicity Necrosis Classification (AMPB 20; 72 h): no | Liver Toxicity Necrosis Classification (compound-dose group at 72 h; dose 5): no | Liver Toxicity Necrosis Classification [1]: no | Liver Toxicity Necrosis Classification (compound-dosegroup at 72 h, dose 5): no | Liver Toxicity Necrosis Classification [2]: no | Liver Necrosis (rat, intraperitoneal, dose 5 mg/kg, 72 hours after treatment): No | Score (histopathology liver necrosis severity score) (rat, intraperitoneal, dose 5 mg/kg, 72 hours; 1 = not remarkable, 2 and higher increasing severity): 1 | Liver Necrosis [3]: No | Score (histopathology liver necrosis severity score) [4]: 1

Cn1cnc([N+](=O)[O-])c1Sc1ncnc2nc[nH]c12 [azathioprine]
Score (histopathology liver necrosis severity score) [5]: 1 | Score (histopathology liver necrosis severity score) (Sprague Dawley, rat, in vivo, ip, 200 mg/kg, 72 h): 1 | Liver Toxicity Necrosis Classification (rat, in vivo): no | Liver Necrosis (rat, in vivo, ip, 50 mg/kg): No | Liver Necrosis (rat, in vivo, ip, 200 mg/kg): No

c1ccccc1 [benzene]
Liver Toxicity Necrosis Classification (rat, in vivo): no | Liver Necrosis (rat, in vivo, ip): No | Score (histopathology liver necrosis severity score) (rat, in vivo, ip): 1

c1ccc2c(c1)cc1ccc3cccc4ccc2c1c34 [benzo[a]pyrene]
Liver Toxicity Necrosis Classification (compound-dose group at 72 h; dose 30): no | Liver Necrosis (rat, intraperitoneal, dose 30 mg/kg, 72 hours after treatment): No | Score (histopathology liver necrosis severity score) (rat, intraperitoneal, dose 30 mg/kg, 72 hours; 1 = not remarkable, 2 and higher increasing severity): 1

CS(=O)(=O)OCCCCOS(C)(=O)=O [busulfan]
Score (histopathology liver necrosis severity score) (Sprague Dawley, rat, in vivo, ip, 14 mg/kg, 72 h): 1 | Liver Toxicity Necrosis Classification (rat, in vivo): no | Liver Necrosis (rat, in vivo, ip, 14 mg/kg): no

[Cl][Cd][Cl] [cadmium chloride]
Liver Toxicity Necrosis Classification [6]: no | Liver Toxicity Necrosis Classification (72 h; compound-dose group; dose CAD 2): no | Liver Toxicity Necrosis Classification (compound-dose group at 72 h, dose 1; no = no necrosis observed): no | Liver Toxicity Necrosis Classification (compound-dose group at 72 h, dose 4; yes = necrosis observed): yes | Liver Toxicity Necrosis Classification [7]: no | Liver Necrosis (rat, intraperitoneal, dose 1 mg/kg, 72 hours after treatment): no | Score (histopathology liver necrosis severity score) (rat, intraperitoneal, dose 1 mg/kg, 72 hours; 1 = not remarkable, 2 and higher increasing severity): 1 | Liver Necrosis (rat, intraperitoneal, dose 2 mg/kg, 72 hours after treatment): No | Score (histopathology liver necrosis severity score) (rat, intraperitoneal, dose 2 mg/kg, 72 hours; 1 = not remarkable, 2 and higher increasing severity): 1 | Liver Necrosis (rat, intraperitoneal, dose 4 mg/kg, 72 hours after treatment): Yes | Score (histopathology liver necrosis severity score) (rat, intraperitoneal, dose 4 mg/kg, 72 hours; 1 = not remarkable, 2 and higher increasing severity): 3

O=NN(CCCl)C(=O)NCCCl [carmustine]
Liver Toxicity Necrosis Classification (72 h, dose 16): no | Liver Toxicity Necrosis Classification [6]: no | Liver Toxicity Necrosis Classification [7]: no | Liver Toxicity Necrosis Classification (compound-dosegroup at 72 h; dose 16): no | Liver Necrosis (rat, intraperitoneal, dose 16 mg/kg, 72 hours after treatment): no | Score (histopathology liver necrosis severity score) (rat, intraperitoneal, dose 16 mg/kg, 72 hours; 1 = not remarkable, 2 and higher increasing severity): 1

ClC(Cl)Cl [chloroform]
Liver Toxicity Necrosis Classification (rat, in vivo): no | Liver Necrosis (rat, in vivo, ip): no | Score (histopathology liver necrosis severity score) (rat, in vivo, ip): 1

CN(C)CCCN1c2ccccc2Sc2ccc(Cl)cc21 [chlorpromazine]
Score (histopathology liver necrosis severity score) (Sprague Dawley, rat, in vivo, ip, 8 mg/kg, 72 h): 1 | Score (histopathology liver necrosis severity score) (Sprague Dawley, rat, in vivo, ip, 30 mg/kg, 72 h): 1 | Liver Toxicity Necrosis Classification (rat, in vivo): no | Liver Necrosis (rat, in vivo, ip, 8 mg/kg): no | Liver Necrosis (rat, in vivo, ip, 30 mg/kg): no

N.N.[Cl][Pt][Cl] [cisplatin]
Liver Necrosis (rat, intraperitoneal, dose 10 mg/kg, 72 hours after treatment): no | Score (histopathology liver necrosis severity score) (rat, intraperitoneal, dose 10 mg/kg, 72 hours; 1 = not remarkable, 2 and higher increasing severity): 1

CCOC(=O)C(C)(C)Oc1ccc(Cl)cc1 [clofibrate]
Score (histopathology liver necrosis severity score) (Sprague Dawley, rat, in vivo, ip, 75 mg/kg, 72 h): 1 | Score (histopathology liver necrosis severity score) (Sprague Dawley, rat, in vivo, ip, 250 mg/kg, 72 h): 1 | Liver Toxicity Necrosis Classification (rat, in vivo): no | Liver Necrosis (rat, in vivo, ip, 75 mg/kg): no | Liver Necrosis (rat, in vivo, ip, 250 mg/kg): no

CN1CCN(C2=Nc3cc(Cl)ccc3Nc3ccccc32)CC1 [clozapine]
Score (histopathology liver necrosis severity score) (Sprague Dawley, rat, in vivo, ip, 45 mg/kg, 72 h): 1 | Score (histopathology liver necrosis severity score) (Sprague Dawley, rat, in vivo, ip, 180 mg/kg, 72 h): 1 | Liver Toxicity Necrosis Classification (rat, in vivo): no | Liver Necrosis (rat, in vivo, ip, 45 mg/kg): no | Liver Necrosis (rat, in vivo, ip, 180 mg/kg): no

O=C(O)c1cc(-c2ccc(F)cc2F)ccc1O [diflunisal]
Score (histopathology liver necrosis severity score) (Sprague Dawley, rat, in vivo, ip, 25 mg/kg, 72 h): 1 | Score (histopathology liver necrosis severity score) (Sprague Dawley, rat, in vivo, ip, 100 mg/kg, 72 h): 1 | Liver Toxicity Necrosis Classification (rat, in vivo): no | Liver Necrosis (rat, in vivo, ip, 25 mg/kg): no | Liver Necrosis (rat, in vivo, ip, 100 mg/kg): no

CN(C)N=O [dimethylnitrosamine]
Liver Toxicity Necrosis Classification (72 h, dose 20): yes | Liver Toxicity Necrosis Classification (72 h; dose 20): yes | Liver Toxicity Necrosis Classification (compound-dose group at 72 h; CCL4 1000, DMN 20, LPS 8): yes | Liver Necrosis [3]: Yes | Score (histopathology liver necrosis severity score) [4]: 9

COc1cccc2c1C(=O)c1c(O)c3c(c(O)c1C2=O)C[C@@](O)(C(=O)CO)C[C@@H]3O[C@H]1C[C@H](N)[C@H](O)[C@H](C)O1 [doxorubicin]
Score (histopathology liver necrosis severity score) (Sprague Dawley, rat, in vivo, ip, 12 mg/kg, 72 h): 1 | Liver Toxicity Necrosis Classification (rat, in vivo): no | Liver Necrosis (rat, in vivo, ip, 12 mg/kg): no

CCC(=O)O[C@H]1[C@H](O[C@@H]2[C@@H](C)[C@H](O[C@H]3C[C@@](C)(OC)[C@@H](O)[C@H](C)O3)[C@@H](C)C(=O)O[C@H](CC)[C@@](C)(O)[C@H](O)[C@@H](C)C(=O)[C@H](C)C[C@@]2(C)O)O[C@H](C)C[C@@H]1N(C)C [erythromycin estolate]
Liver Toxicity Necrosis Classification (72 h, dose 40): no | Liver Toxicity Necrosis Classification (compound-dose group at 72 h; dose 40): no | Liver Toxicity Necrosis Classification (compound-dose group at 72 h; dose 160): no | Liver Toxicity Necrosis Classification (dose 40, 72 h): no | Liver Toxicity Necrosis Classification (dose 160, 72 h): no | Liver Necrosis (rat, intraperitoneal, dose 40 mg/kg, 72 hours after treatment): no | Score (histopathology liver necrosis severity score) (rat, intraperitoneal, dose 40 mg/kg, 72 hours; 1 = not remarkable, 2 and higher increasing severity): 1 | Liver Necrosis (rat, intraperitoneal, dose 160 mg/kg, 72 hours after treatment): no | Score (histopathology liver necrosis severity score) (rat, intraperitoneal, dose 160 mg/kg, 72 hours; 1 = not remarkable, 2 and higher increasing severity): 1

C[C@]12CC[C@@H]3c4ccc(O)cc4CC[C@H]3[C@@H]1CC[C@@H]2O [estradiol]
Score (histopathology liver necrosis severity score) (Sprague Dawley, rat, in vivo, ip, 0.1 mg/kg, 72 h): 1 | Score (histopathology liver necrosis severity score) (Sprague Dawley, rat, in vivo, ip, 0.4 mg/kg, 72 h): 1 | Liver Toxicity Necrosis Classification (rat, in vivo): no | Liver Necrosis (rat, in vivo, ip, 0.1 mg/kg): no | Liver Necrosis (rat, in vivo, ip, 0.4 mg/kg): no

CCO [ethanol]
Liver Toxicity Necrosis Classification (rat, in vivo): no | Liver Necrosis (rat, in vivo, ip): no | Score (histopathology liver necrosis severity score) (rat, in vivo, ip): 1
